Measurements from patent US20250197425A1, “2,6,9-TRISUBSTITUTED PURINES” (ASTRAZENECA AB, priority 2022, published 2025).
≈ marks a conversion by molar mass, not a printed value.

How the values were obtained:
[1] = system: POLR2A Ser2 phosphorylation (CDK9); assay: POLR2A Ser2 phosphorylation imaging assay in MCF-7 cells; assay type: cell-based; conditions: Homo sapiens, MCF7, 2 h, MCF-7 cells, 2 hours; read-out: POLR2A Ser2 phosphorylation IC50
Procedure, shortened: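 MCF-7 cells were fixed, permeabilised and immunostained for POLR2A phospho-Ser2, then imaged by high-content microscopy. Levels were normalised to controls and IC50 values derived.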

[2] = system: SKOV3 cells; assay: Cell proliferation CyQUANT assay, SKOV3; assay type: cell-based; conditions: Homo sapiens, SK-OV-3, 168 h; CyQUANT cell counts, 7 days
Description: An imaging-based assay was used to investigate changes in cell number in OVCAR3 cells (CCNE1-amplified ovarian cancer cell line) and SKOV3 cells (non-amplified ovarian cancer cell line) treated with test compounds.
Cells were plated in 384 well plates (Perkin-Elmer 6057300) in RPMI-1640/10% FBS/1× L-Glu at 500 cells per well in 30 μL and incubated with test compound at 37° C. and 5% CO2 for 7 days. Cells were then stained using the CyQuant Direct Cell Proliferation Assay Kit (Thermo Cat #C7026) in accordance with the kit protocol. The stained cells were imaged using an Operetta high content imager to generate cell counts and IC50 values were calculated relative to DMSO controls.

[3] = molecular target: 379 non-CDK kinase (or non-CDK kinase-complex) targets; assay: Kinase profiling (SelectScreen, ThermoFisher); assay type: biochemical; conditions: compared with Compound 6
Excerpt: Test compounds were profiled against a broad panel of kinases at ThermoFisher Scientific using the SelectScreen Kinase Profiling Services. Each kinase assay used one of the following assay technology protocols: • 1) Z-LYTE™ Screening Protocol and Assay Conditions (Revised 23 Jan. 2018 version) available at http://assets.thermofisher.com/TFS-Assets/BID/Methods-&-Protocols/20180123_SSBK_Customer_Protocol_and_Assay_Conditions.pdf; • 2) Adapta™ Screening Protocol and Assay Conditions (Revised 23 Jan. 2018 version) available at http://assets.thermofisher.com/TFS-Assets/BID/Methods-&-Protocols/20180123_SSBK_Adapta_Customer_Protocol_and_Assay_Conditions.pdf; or • 3) LanthaScreen™ Eu Kinase Binding Assay Screening Protocol and Assay Conditions (Revised 23 Jan. 2018 version) available at http://assets.thermofisher.com/TFS-Assets/BID/Methods-&-Protocols/20180123_SSBK_LanthaScreen_Binding_Customer_Protocol_and_Assay_Co nditions.pdf.

[4] = CLint assessment in human liver microsomes (HLM); assay type: in vitro ADME; conditions: 1 μM
Procedure, shortened: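 Microsomes preincubated 8 min with NADPH, then compound added and incubated 30 min at 37° C. Remaining compound measured by LC-MS/MS. t1/2 and CLint calculated, with CLint scaled to incubation volume per mg microsomal protein.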

[5] = Aqueous thermodynamic solubility, shake-flask; assay type: physicochemical; conditions: aqueous phosphate buffer, 25 °C, pH 7.4, aqueous buffer, thermodynamic from solid, phosphate buffer 0.1 M, pH 7.4, 24 hours
Procedure, shortened: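 Dried compound (after DMSO evaporation) was equilibrated in 0.1 M phosphate buffer pH 7.4 with stirring for 24 h at 25° C. Undissolved material was removed by double centrifugation, and the supernatant was diluted in water and quantified by UPLC/MS/MS.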

[6] = system: 97 targets (GPCRs, ion channels, transporters, enzymes, kinases); assay: Secondary pharmacology panel (Eurofins CEREP); conditions: compared with Compound 6
Description: Secondary pharmacology assays were performed at Eurofins CEREP using standard experimental techniques. Specifically, radioligand binding assays were used to assess the ability of test compounds to interact with G-protein coupled receptors (GPCRs), ion channels, and transmembrane transporters. Assays measuring substrate turnover or phosphorylation by isolated proteins were used for enzyme and kinase targets, allowing direct determination of the mode of action of the tested compounds.

Row | Structure (SMILES) | IC50 [1] [µM] | IC50 [2] [µM] | kinase inhibition profile [3] | HLM CLint [4] [µL/min/mg] | solubility at 24 h [5] [µM] | secondary pharmacology profile [6]
1 | CCNS(=O)(=O)N1CC[C@H](Nc2nc(N[C@@H](CC)[C@@H](C)O)nc3c2ncn3C)C1 [Example 53, (S)—N-ethyl-3-((2-(((2R,3S)-2-hydroxypentan-3-yl)amino)-9-methyl-9H-purin-6-yl)amino)pyrrolidine-1-sulfonamide] | > 30 | 10.7 | broadly similar kinase inhibition profiles to Compound 6 | – | – | –
2 | CCn1cnc2c(N[C@H]3CCN(S(=O)(=O)NC)C3)nc(-c3cccc4c3CC[C@]4(C)O)nc21 (relative stereo) [Example 3, (S)-3-((9-ethyl-2-((R*)-1-hydroxy-1-methyl-2,3-dihydro-1H-inden-4-yl)-9H-purin-6-yl)amino)-N-methylpyrrolidine-1-sulfonamide] | 6.5 | – | broadly similar kinase inhibition profiles to Compound 6 | 45.2 | 48 (≈ 22.6 µg/mL) | broadly similar secondary pharmacology to Compound 6
3 | CCNS(=O)(=O)N1CC[C@H](Nc2nc(N[C@@H](CO)C3CC3)nc3c2ncn3C)C1 [Example 19, (S)-3-((2-(((R)-1-cyclopropyl-2-hydroxyethyl)amino)-9-methyl-9H-purin-6-yl)amino)-N-ethylpyrrolidine-1-sulfonamide] | 17.6 | 4.04 | broadly similar kinase inhibition profiles to Compound 6 | – | – | –
4 | CCn1cnc2c(N[C@@H]3CN(S(=O)(=O)c4ncc[nH]4)C[C@H]3F)nc(N[C@@H](CO)C3CC3)nc21 (relative stereo) [Example 17, (R)-2-((6-(((3R*,4R*)-1-((1H-imidazol-2-yl)sulfonyl)-4-fluoropyrrolidin-3-yl)amino)-9-ethyl-9H-purin-2-yl)amino)-2-cyclopropylethan-1-ol] | 3.9 | 1.16 | – | 46 | 280 (≈ 134 µg/mL) | –
